Literature values, collected in patent US8535717B2, “Pharmaceutical composition” (Sun Pharma Advanced Research Company Limited, priority 2005, dated 2013).

solubility (cannot be decreased by altering pH of the microenvironment): 104 g/100 ml
solubility in water (water): 104 g in 100 ml
Structure (SMILES): CC[C@@H](C(N)=O)N1CCCC1=O [levetiracetam]
